Results from patent US20240317743A1, “Solid Forms of BCL-2 Inhibitors, Method of Preparation, and Use Thereof” (BeiGene, Ltd., priority 2021, published 2024).
≈ marks a conversion by molar mass, not a printed value. Blank lines part the entries; values can stand above or below the molecule they belong to.

Key:
Format in all cases: physicochemical
[1] = DVS (Method A) water uptake / hygroscopicity; conditions: 25° C./80% RH
Protocol: DVS of the obtained forms in the present disclosure was measured via an SMS (Surface Measurement Systems) DVS Intrinsic, without special instructions (Method A). The relative humidity at 25° C. was calibrated against deliquescence point of LiCl, Mg(NO3)2 and KCl. Parameters for the DVS test are listed as follows. [table]

[2] = Solid form solubility, concentration by HPLC at 24 hours
Protocol: The solubility of Compound 1 in different physical forms was tested in water, 0.1 N HCl, pH 4.5 acetate buffer and pH 6.8 phosphate buffer. At 24 hours of time point, the concentration of Compound 1 was detected by HPLC.

[3] = Long term and accelerated physical and chemical stability test, impurities by HPLC
Protocol: Long term and accelerated stability studies were conducted in different physical forms of Compound 1, by storing the samples at 25±2° C./60±5% RH and 40±2° C./75±5% RH conditions for up to 6 months. And, the content of the total impurities of each sample was tested by HPLC.

[4] = Physical stability: storage under humidity/temperature, form checked by XRPD
Protocol: To evaluate the physicochemical stability, store 1˜3 mg of Forms B, S, M, R, F, H and N samples were stored under 25° C./60% RH or 40° C./75% RH conditions for one week (unsealed) or 80° C. condition for 24 hrs (sealed).

[5] = Solid form stability of Form B: slurry or shaking in acetone/H2O system at 50° C., XRPD
Protocol: Evaluation of solid form stability of Form B was performed in acetone/H2O system at 50° C. About 2 mg of Form B sample was used to slurry or shake in the acetone/H2O (1:9, v/v) and H2O solution (saturated by amorphous sample).

[6] = Storage at RT, form checked by XRPD overlay; conditions: RT, ~3 days
Protocol: Form K was speculated as a methyl acetate solvate.
Thus, Form L was speculated as a metastable anhydrate/hydrate which could be de-solvated from the wet cake from the solvent system.
(peak) before decomposition (FIG. 16B). According to the integration of ^1H NMR result (FIG. 16C), the theoretical weight of chlorobenzene was calculated as 9.8%, which matched with the TGA weight loss. […] After heating the sample to 140° C., more diffraction peaks disappeared. Combined with the TGA, ^1H NMR data and heating experiment, Form P was speculated as a chlorobenzene solvate.

- water uptake ([1]; listed as amorphous form): 1.8%
- solubility ([2]; 0.1 N HCl): 35.30 µg/mL (≈ 39.7 µM)
- solubility ([2]; pH 4.5 acetate buffer): no Compound 1 was detected
- solubility ([2]; pH 6.8 phosphate buffer): no Compound 1 was detected
- solubility ([2]; water): no Compound 1 was detected
- change of chemical purity ([3]; 25±2° C./60±5% RH and 40±2° C./75±5% RH, up to 6 months): reduced significantly
- total content of impurities ([3]; after 6 months at 40±2° C./75±5% RH): 4.2%
- total content of impurities ([3]; before storage (initial)): 2.10%
Compound: CC(C)c1ccccc1[C@@H]1CCCN1C1CC2(CCN(c3ccc(C(=O)NS(=O)(=O)c4ccc(NCC5CCC(C)(O)CC5)c([N+](=O)[O-])c4)c(Oc4cnc5[nH]ccc5c4)c3)CC2)C1 (stereo partly drawn) [Compound 1 amorphous, 2-((1H-pyrrolo[2,3-b]pyridin-5-yl)oxy)-N-((4-((((1r,4r)-4-hydroxy-4-methylcyclohexyl)methyl)amino)-3-nitrophenyl)sulfonyl)-4-(2-((S)-2-(2-isopropylphenyl)pyrrolidin-1-yl)-7-azaspiro[3.5]nonan-7-yl)benzamide]

- hygroscopicity [1]: slight hygroscopicity
- water uptake [1]: 0.9%
- form change (XRPD overlay) ([4]; 25° C./60% RH, one week, unsealed): no form change
- form change (XRPD overlay) ([4]; 40° C./75% RH, one week, unsealed): no form change
- form change (XRPD overlay) ([4]; 80° C., sealed, 24 hrs): no form change
- crystalline status (XRPD overlay) ([5]; shaking in H2O, about 4 hours): no form change was observed
- crystalline status (XRPD overlay) ([5]; shaking in H2O, about 4 days): no form change was observed
- crystalline status (XRPD overlay) ([5]; shaking in acetone/H2O (1:9, v/v), about 4 hours): no form change was observed
- crystalline status (XRPD overlay) ([5]; shaking in acetone/H2O (1:9, v/v), about 4 days): no form change was observed
- crystalline status (XRPD overlay) ([5]; slurrying in H2O, about 4 hrs): no form change was observed
- crystalline status (XRPD overlay) ([5]; slurrying in H2O, about 4 days): a decrease of crystallinity was observed
- crystalline status (XRPD overlay) ([5]; slurrying in acetone/H2O (1:9, v/v), about 4 days): a decrease of crystallinity was observed
Compound: CC(C)c1ccccc1[C@@H]1CCCN1C1CC2(CCN(c3ccc(C(=O)NS(=O)(=O)c4ccc(NCC5CCC(C)(O)CC5)c([N+](=O)[O-])c4)c(Oc4cnc5[nH]ccc5c4)c3)CC2)C1 (stereo partly drawn) [Form B, 2-((1H-pyrrolo[2,3-b]pyridin-5-yl)oxy)-N-((4-((((1r,4r)-4-hydroxy-4-methylcyclohexyl)methyl)amino)-3-nitrophenyl)sulfonyl)-4-(2-((S)-2-(2-isopropylphenyl)pyrrolidin-1-yl)-7-azaspiro[3.5]nonan-7-yl)benzamide]

- form change on storage [6]: convert back to Form N
Compound: CC(C)c1ccccc1[C@@H]1CCCN1C1CC2(CCN(c3ccc(C(=O)NS(=O)(=O)c4ccc(NCC5CCC(C)(O)CC5)c([N+](=O)[O-])c4)c(Oc4cnc5[nH]ccc5c4)c3)CC2)C1 (stereo partly drawn) [Form T, 2-((1H-pyrrolo[2,3-b]pyridin-5-yl)oxy)-N-((4-((((1r,4r)-4-hydroxy-4-methylcyclohexyl)methyl)amino)-3-nitrophenyl)sulfonyl)-4-(2-((S)-2-(2-isopropylphenyl)pyrrolidin-1-yl)-7-azaspiro[3.5]nonan-7-yl)benzamide]
